This is an account of results in ChEMBL document CHEMBL3994622, “Design and synthesis of new RAF kinase-inhibiting antiproliferative quinoline derivatives. Part 2: Diarylurea derivatives” (Eur J Med Chem, 2017).

Type in all cases: functional
One assay has as its system SNB-19. In words: Growth inhibition of human SNB19 cells assessed as cell growth at 3 uM incubated for 48 hrs by sulforhodamine B assay relative to control. The conditions noted are these: SNB-19, 48 h, read-out: Activity. In general terms: Sulforhodamine B stains cellular protein and so reports cell mass.
Assay [1] has as its system MOLT-4. In words: Growth inhibition of human MOLT4 cells assessed as cell growth at 30 uM incubated for 48 hrs by sulforhodamine B assay relative to control. The conditions noted are these: MOLT-4, 48 h, read-out: Activity.
Assay [2] has as its system OVCAR-3. In words: Growth inhibition of human OVCAR3 cells assessed as cell growth at 30 uM incubated for 48 hrs by sulforhodamine B assay relative to control. The conditions noted are these: OVCAR-3, 48 h, read-out: Activity.
The subject of another assay is COLO 205. In words: Growth inhibition of human COLO205 cells assessed as cell growth at 0.3 uM incubated for 48 hrs by sulforhodamine B assay relative to control. The conditions noted are these: COLO 205, 48 h, read-out: Activity.
The next assay deals with SF-268. In words: Growth inhibition of human SF268 cells assessed as cell growth at 0.03 uM incubated for 48 hrs by sulforhodamine B assay relative to control. The conditions noted are these: SF-268, 48 h, read-out: Activity.
In assay [3] the test system is HL-60(TB). In words: Growth inhibition of human HL-60(TB) cells assessed as cell growth at 0.03 uM incubated for 48 hrs by sulforhodamine B assay relative to control. The conditions noted are these: HL-60, 48 h, read-out: Activity.
In the next assay the test system is RXF 393. In words: Growth inhibition of human RXF393 cells assessed as cell growth at 0.3 uM incubated for 48 hrs by sulforhodamine B assay relative to control. The conditions noted are these: RXF 393, 48 h, read-out: Activity.
In another assay the test system is UACC-257. In words: Growth inhibition of human UACC257 cells assessed as cell growth at 0.3 uM incubated for 48 hrs by sulforhodamine B assay relative to control. The conditions noted are these: UACC-257, 48 h, read-out: Activity.
For the next assay, the system named is HT-29. In words: Growth inhibition of human HT-29 cells assessed as cell growth at 0.3 uM incubated for 48 hrs by sulforhodamine B assay relative to control. The conditions noted are these: HT-29, 48 h, read-out: Activity.
The subject of a further assay is SW-620. In words: Growth inhibition of human SW620 cells assessed as cell growth at 0.03 uM incubated for 48 hrs by sulforhodamine B assay relative to control. The conditions noted are these: SW-620, 48 h, read-out: Activity.
Another assay deals with OVCAR-5. In words: Growth inhibition of human OVCAR5 cells assessed as cell growth at 0.003 uM incubated for 48 hrs by sulforhodamine B assay relative to control. The conditions noted are these: OVCAR-5, 48 h, read-out: Activity.
A further assay has as its system IGROV-1. In words: Growth inhibition of human IGROV1 cells assessed as cell growth at 0.3 uM incubated for 48 hrs by sulforhodamine B assay relative to control. The conditions noted are these: IGROV-1, 48 h, read-out: Activity.
A further assay deals with UACC-62. In words: Growth inhibition of human UACC62 cells assessed as cell growth at 0.003 uM incubated for 48 hrs by sulforhodamine B assay relative to control. The conditions noted are these: UACC-62, 48 h, read-out: Activity.
Another assay deals with CAKI-1. In words: Growth inhibition of human Caki1 cells assessed as cell growth at 0.3 uM incubated for 48 hrs by sulforhodamine B assay relative to control. The conditions noted are these: CAKI-1, 48 h, read-out: Activity.
The test system of assay [4] is M14. In words: Growth inhibition of human M14 cells assessed as cell growth at 0.3 uM incubated for 48 hrs by sulforhodamine B assay relative to control. The conditions noted are these: M14, 48 h, read-out: Activity.
In assay [5] the test system is NCI/ADR-RES. In words: Growth inhibition of human NCI/ADR-RES cells assessed as cell growth at 0.003 uM incubated for 48 hrs by sulforhodamine B assay relative to control. The conditions noted are these: read-out: Activity.
A further assay has as its system HCT-116. In words: Growth inhibition of human HCT116 cells assessed as cell growth at 10 uM incubated for 48 hrs by sulforhodamine B assay relative to control. The conditions noted are these: HCT-116, 48 h, read-out: Activity.
In the next assay the test system is MCF7. In words: Growth inhibition of human MCF7 cells assessed as cell growth at 10 uM incubated for 48 hrs by sulforhodamine B assay relative to control. The conditions noted are these: MCF7, 48 h, read-out: Activity.
A further assay has as its system SN12C. In words: Growth inhibition of human SN12C cells assessed as cell growth at 0.1 uM incubated for 48 hrs by sulforhodamine B assay relative to control. The conditions noted are these: read-out: Activity.
The subject of assay [6] is CCRF-CEM. In words: Growth inhibition of human CCRF-CEM cells assessed as cell growth at 1 uM incubated for 48 hrs by sulforhodamine B assay relative to control. The conditions noted are these: read-out: Activity.
The subject of the next assay is BT-549. In words: Growth inhibition of human BT549 cells assessed as cell growth at 100 uM incubated for 48 hrs by sulforhodamine B assay relative to control. The conditions noted are these: BT-549, 48 h, read-out: Activity.
Assay [7] concerns MOLT-4. In words: Growth inhibition of human MOLT4 cells assessed as cell growth at 10 uM incubated for 48 hrs by sulforhodamine B assay relative to control. The conditions noted are these: MOLT-4, 48 h, read-out: Activity.
Assay [8] relates to CCRF-CEM. In words: Growth inhibition of human CCRF-CEM cells assessed as cell growth at 100 uM incubated for 48 hrs by sulforhodamine B assay relative to control. The conditions noted are these: read-out: Activity.
Another assay concerns DU-145. In words: Growth inhibition of human DU145 cells assessed as cell growth at 10 uM incubated for 48 hrs by sulforhodamine B assay relative to control. The conditions noted are these: DU-145, 48 h, read-out: Activity.
Assay [9] concerns HL-60(TB). In words: Growth inhibition of human HL-60(TB) cells assessed as cell growth at 0.1 uM incubated for 48 hrs by sulforhodamine B assay relative to control. The conditions noted are these: HL-60, 48 h, read-out: Activity.
Assay [10] concerns OVCAR-3. In words: Growth inhibition of human OVCAR3 cells assessed as cell growth at 0.01 uM incubated for 48 hrs by sulforhodamine B assay relative to control. The conditions noted are these: OVCAR-3, 48 h, read-out: Activity.
A further assay relates to MDA-MB-435. In words: Growth inhibition of human MDA-MB-435 cells assessed as cell growth at 1 uM incubated for 48 hrs by sulforhodamine B assay relative to control. The conditions noted are these: MDA-MB-435, 48 h, read-out: Activity.
The next assay deals with SF-295. In words: Growth inhibition of human SF295 cells assessed as cell growth at 0.1 uM incubated for 48 hrs by sulforhodamine B assay relative to control. The conditions noted are these: SF-295, 48 h, read-out: Activity.
The test system of the next assay is T47D. In words: Growth inhibition of human T47D cells assessed as cell growth at 0.01 uM incubated for 48 hrs by sulforhodamine B assay relative to control. The conditions noted are these: read-out: Activity.
For assay [11], the system named is CCRF-CEM. In words: Growth inhibition of human CCRF-CEM cells assessed as cell growth at 0.01 uM incubated for 48 hrs by sulforhodamine B assay relative to control. The conditions noted are these: read-out: Activity.
The next assay deals with SNB-75. In words: Growth inhibition of human SNB75 cells assessed as cell growth at 0.01 uM incubated for 48 hrs by sulforhodamine B assay relative to control. The conditions noted are these: SNB-75, 48 h, read-out: Activity.
In another assay the test system is HOP-62. In words: Growth inhibition of human HOP62 cells assessed as cell growth at 10 uM incubated for 48 hrs by sulforhodamine B assay relative to control. The conditions noted are these: HOP-62, 48 h, read-out: Activity.
Assay [12] relates to M14. In words: Growth inhibition of human M14 cells assessed as cell growth at 1 uM incubated for 48 hrs by sulforhodamine B assay relative to control. The conditions noted are these: M14, 48 h, read-out: Activity.
For assay [13], the system named is NCI/ADR-RES. In words: Growth inhibition of human NCI/ADR-RES cells assessed as cell growth at 0.01 uM incubated for 48 hrs by sulforhodamine B assay relative to control. The conditions noted are these: read-out: Activity.

Take `Cc1nc2cc(O)c(O)cc2cc1Oc1ccc(NC(=O)Nc2ccc(Cl)c(Cl)c2)cc1`: the growth at 3 µM in the assay with SNB-19 was found to be 96%. The figures for the growth at 30 µM in the assay with MOLT-4 [1] and with OVCAR-3 [2] were 2% and -29%, respectively. For the same compound, the growth at 0.3 µM with COLO 205 was 109%; in the assay on RXF 393 it was 103%; in the assay on UACC-257 it was 92%; with HT-29, 103%; in the assay with IGROV-1, 103%; in the assay on CAKI-1, 95%. Further, the growth at 0.3 µM with M14 [4] was found to be 93%. Besides, the growth at 0.03 µM in the assay with SF-268 worked out at 104%; in the assay on HL-60(TB) [3] it was 106%; in the assay on SW-620, 97%. Besides, the growth at 0.003 µM in the assay on OVCAR-5 is 102%; in the assay on UACC-62, 96%; in the assay with NCI/ADR-RES [5], 100%.
Turning to `COc1cc2cc(Oc3ccc(NC(=O)Nc4ccc(Cl)c(C(F)(F)F)c4)cc3)c(C)nc2cc1OC`, the growth at 3 µM in the assay on SNB-19 was 24%. Also, the values for the growth at 30 µM with MOLT-4 [1] and in the assay with OVCAR-3 [2] were -36% and -87%, respectively. The growth at 0.3 µM worked out at 102% with COLO 205; 113% in the assay with RXF 393; 83% in the assay on UACC-257; 105% in the assay on HT-29; 117% in the assay with IGROV-1; 87% in the assay on CAKI-1. The growth at 0.3 µM in the assay on M14 [4] was 94%. Moreover, the growth at 0.03 µM with SF-268 is 91%; with HL-60(TB) [3] it was 97%; in the assay on SW-620, 100%. Besides, the growth at 0.003 µM was 96% in the assay on OVCAR-5, 96% in the assay on UACC-62 and 104% in the assay with NCI/ADR-RES [5].
`COc1cc2cc(Oc3ccc(NC(=O)Nc4ccc(Cl)c(Cl)c4)cc3)c(C)nc2cc1OC`: the growth at 10 µM with HCT-116 was found to be 2%; with MCF7, 8%; in the assay with MOLT-4 [7] it was 7%; in the assay on DU-145, 19%; with HOP-62, 8%. Moreover, the growth at 0.1 µM with SN12C was determined as 95%; in the assay with HL-60(TB) [9], 109%; with SF-295, 87%. For the same compound, the growth at 1 µM is 78% in the assay on CCRF-CEM [6], 85% in the assay with MDA-MB-435 and 83% in the assay on M14 [12]. Moreover, the growth at 100 µM is -72% in the assay with BT-549 and -26% in the assay on CCRF-CEM [8]. For the same compound, the growth at 0.01 µM in the assay with OVCAR-3 [10] came out at 109%; in the assay with T47D, 100%; in the assay on CCRF-CEM [11] it was 102%; with SNB-75 it was 89%; in the assay with NCI/ADR-RES [13] it was 101%.
`COc1cc2cc(Oc3ccc(NC(=O)Nc4cc(C(F)(F)F)cc(C(F)(F)F)c4)cc3)c(C)nc2cc1OC`: the growth at 10 µM is -84% in the assay on HCT-116; -59% in the assay on MCF7; -36% in the assay on MOLT-4 [7]; -2% in the assay with DU-145; -82% in the assay with HOP-62. The growth at 0.1 µM is 100% in the assay with SN12C, 84% with HL-60(TB) [9] and 92% with SF-295. The figures for the growth at 1 µM in the assay on CCRF-CEM [6], in the assay with MDA-MB-435 and in the assay on M14 [12] were 39%, 84% and 50%, respectively. Besides, the growth at 100 µM was -61% with BT-549 and -40% with CCRF-CEM [8]. Besides, the growth at 0.01 µM was found to be 104% in the assay with OVCAR-3 [10]; 86% in the assay with T47D; 97% with CCRF-CEM [11]; 81% in the assay on SNB-75; 101% with NCI/ADR-RES [13].
